Measured values from patent US20080119462A1, “METHOD FOR TREATING VASCULAR HYPERPERMEABLE DISEASE” (Sucampo AG, priority 2003, published 2008).

Biological target: T1, Human platelet MAO (Homo sapiens, UniProt P27338)
T1 construct: human platelet MAO; from tissue; host or cells: human platelets
T1 sequence (P27338 1-520): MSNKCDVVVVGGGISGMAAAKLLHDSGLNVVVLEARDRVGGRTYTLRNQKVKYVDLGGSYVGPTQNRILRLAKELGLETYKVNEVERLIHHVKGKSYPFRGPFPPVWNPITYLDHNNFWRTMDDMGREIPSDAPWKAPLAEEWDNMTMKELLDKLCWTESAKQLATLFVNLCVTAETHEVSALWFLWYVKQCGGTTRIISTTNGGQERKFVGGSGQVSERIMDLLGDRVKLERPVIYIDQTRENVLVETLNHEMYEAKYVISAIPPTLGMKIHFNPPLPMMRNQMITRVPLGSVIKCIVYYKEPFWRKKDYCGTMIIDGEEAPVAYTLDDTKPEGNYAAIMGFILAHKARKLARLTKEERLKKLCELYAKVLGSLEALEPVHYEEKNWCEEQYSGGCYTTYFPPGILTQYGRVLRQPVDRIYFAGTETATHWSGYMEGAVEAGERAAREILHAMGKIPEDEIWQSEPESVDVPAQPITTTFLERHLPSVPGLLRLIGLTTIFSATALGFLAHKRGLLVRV
Assay: Monoamine oxidase (MAO) activity assay with 14C-phenylethylamine
Assay type: biochemical
Experimental: VAP-1 enzyme (SSAO) activity in both human and rat plasma was determined by a radiochemical-enzyme assay using ^14C-benzylamine as artificial substrate. The enzyme suspension prepared from blood plasma was pre-incubated with Compound A in 96-well microplate at room temperature for 30 min. The enzyme suspension was then incubated with ^14C-benzylamine (2×10^−5 mol/l final concentration) in a final volume of 50 μl at 37° C. for 1 hour. The enzyme reaction was terminated by adding 2 mol/l (50 μl) citric acid. The oxidized products were directly extracted into a 200 μl toluene scintillator, and its radioactivity was measured by a scintillation spectrometer. Monoamine oxidase (MAO) and diamine oxidase (DAO, histaminase) activities were also determined by similar method using ^14C-phenylethylamine and ^14C-putrescine as substrate, respectively. Cloned DAO from cDNA libraries was used in human DAO assay. Inhibition activity was expressed as IC50 (μmol/l) value.

CC(=O)Nc1nc(CCc2ccc(NC(=N)N)cc2)cs1 [Compound A, N-{4-[2-(4-{[amino(imino)methyl]amino}phenyl)ethyl]-1,3-thiazol-2-yl}acetamide]
Inhibition of the enzyme activity of human platelet MAO (in words): not | IC50 (14C-phenylethylamine as substrate, read-out: Inhibitory effect (IC50 values) Human platelet MAO): > 100 µM
